Values quoted from earlier work in PMC12840679, “Rational Design, Synthesis and Pharmacological Evaluation of Chalcones as Dual-Acting Compounds—Histamine H3 Receptor Ligands and MAO-B Inhibitors” (International Journal of Molecular Sciences, 2026).

Target: hH3R (Homo sapiens, UniProt Q9Y5N1)
Details: HEK293 cells

hH3R, sequence (Q9Y5N1 whole entry): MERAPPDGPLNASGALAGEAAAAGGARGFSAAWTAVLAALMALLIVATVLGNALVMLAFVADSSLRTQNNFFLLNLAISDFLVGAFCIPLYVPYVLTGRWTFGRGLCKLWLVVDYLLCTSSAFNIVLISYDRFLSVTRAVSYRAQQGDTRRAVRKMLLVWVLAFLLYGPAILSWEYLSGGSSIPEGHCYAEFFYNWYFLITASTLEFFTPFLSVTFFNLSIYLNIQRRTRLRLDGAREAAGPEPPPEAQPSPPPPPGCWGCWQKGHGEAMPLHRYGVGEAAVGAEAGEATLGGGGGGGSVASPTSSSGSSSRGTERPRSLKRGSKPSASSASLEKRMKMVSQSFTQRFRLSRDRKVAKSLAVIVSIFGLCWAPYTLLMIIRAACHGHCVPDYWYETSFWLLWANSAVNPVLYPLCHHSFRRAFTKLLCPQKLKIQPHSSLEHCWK

Ki: 58 nM
Structure (SMILES): CC(C)(C)c1ccc(OCCCN2CCCCC2)cc1 [DL76]
